# Assay results taken from patent US5482957A, “Azole derivatives, process for their preparation and their use” (Hoechst Aktiengesellschaft, priority 1991, dated 1996).
# Biological target: angiotensin II receptor
# Assay: Displacement of 125I- or 3H-angiotensin II from receptor preparations from various organs (liver, lung, adrenal gland, brain etc.)
# Format: binding
# Conditions: Table 1; radioligand displacement, 25° C., 90 min, pH 7.4
# Experimental: Alternatively, the affinity of the compounds of the formula I for the angiotensin II receptor can be determined by measurement of the ^125 I-angiotensin II or ^3 H-angiotensin II displacement of receptor preparations from various organs (liver, lung, adrenal gland, brain etc.).
# To this end, the prepared membranes are suspended in an incubation buffer ([…], pH 7.4, containing 135 mM NaCl, 10 mM KCl, 10 mM MgCl2, 5 mM glucose, 0.2% bovine serum albumin and the protease inhibitors PMSF, 0.3 mM, and bacitracin, 0.1 mM) and incubated at 25° C. for 90 min together with the radioactively labeled angiotensin II and various concentrations of the compounds to be tested. Bound and free radioligand are then separated by filtration through micro glass fiber filters (GF51, Schleicher and Schull) in a cell collector (SKATRON).
# The degree of displacement of the radioligand from the receptor by the test compounds is determined by measurement of the receptor-bound radioactivity on the filters by means of a beta- or gamma-spectrometer. The amount of the displacement of the radioligand from the receptor by the test compounds is indicated by the IC50, i.e. the concentration of the inhibitor which displaces 50% of the bound radioligand from the receptor. The calculation of the IC50 values is carried out by means of PC software (LIGAND, G. A. McPherson 1985, Elsevier BIOSOFT, 68 Hills Road, Cambridge, CB2 1LA, UK.).
row,Compound,IC50
1,"CCCCc1nc(Cl)c(C=O)n1Cc1ccc(-c2ccccc2S(=O)(=O)NC(=O)Nc2ccccc2)cc1 [Example 1, 1-[(2'-phenylaminocarbonylaminosulfonylbiphenyl-4-yl)methyl]-2-n-butyl-4-chloroimidazole-5-carboxaldehyde]",5000 nM
2,"CCCCc1nc(Cl)c(C=O)n1Cc1ccc(-c2ccccc2S(=O)(=O)NC(=O)NCCC)cc1 [Example 2, 1-[(2'-n-propylaminocarbonylaminosulfonylbiphenyl-4-yl)methyl]-2-n-butyl-4-chloroimidazole-5-carboxaldehyde]",8000 nM
3,CCCCc1nc(Cl)c(C=O)n1Cc1ccc(-c2cccc(S(=O)(=O)NC(=O)Nc3ncccn3)c2)cc1 [Example 4],1100 nM
4,CCCCc1nc(Cl)c(C=O)n1Cc1ccc(-c2cccc(S(=O)(=O)NC(=O)Nc3nnn[nH]3)c2)cc1 [Example 5],16000 nM
5,CCCCc1nc(Cl)c(C=O)n1Cc1ccc(-c2ccccc2S(=O)(=O)NC(=O)Nc2ccc([N+](=O)[O-])cc2)cc1 [Example 22],2000 nM
6,CCCCc1nc(Cl)c(C=O)n1Cc1ccc(-c2ccccc2S(=O)(=O)NC(=O)Nc2ccccc2F)cc1 [Example 24],800 nM
7,CCCCc1nc(Cl)c(C=O)n1Cc1ccc(-c2ccccc2S(=O)(=O)NC(=O)Nc2ccc(F)cc2)cc1 [Example 25],1400 nM
8,CCCCc1nc(Cl)c(C=O)n1Cc1ccc(-c2ccccc2S(=O)(=O)NC(=O)NCCc2ccccn2)cc1 [Example 29],1.1 nM
9,CCCCc1nc(Cl)c(C=O)n1Cc1ccc(-c2ccccc2S(=O)(=O)NC(=O)NCCN2CCCCC2)cc1 [Example 30],2030 nM
10,CCCCc1nc(Cl)c(C=O)n1Cc1ccc(-c2ccccc2S(=O)(=O)NC(=O)NC2CN3CCC2CC3)cc1 (stereo not shown) [Example 31],153 nM
11,CCCCc1nc(Cl)c(C=O)n1Cc1ccc(-c2ccccc2S(=O)(=O)NC(=O)Nc2nc(C)cs2)cc1 [Example 32],3.5 nM
12,CCCCc1nc(Cl)c(C=O)n1Cc1ccc(-c2ccccc2S(=O)(=O)NC(=O)Nc2ccccc2OC)cc1 [Example 33],34 nM
13,CCCCc1nc(Cl)c(C=O)n1Cc1ccc(-c2ccccc2S(=O)(=O)NC(=O)NCc2ccc(OC)cc2)cc1 [Example 34],1 nM
14,CCCCc1nc(Cl)c(C=O)n1Cc1ccc(-c2ccccc2S(=O)(=O)NC(=O)Nc2ccc(C)cc2)cc1 [Example 35],50 nM
15,CCCCc1nc(Cl)c(C=O)n1Cc1ccc(-c2ccccc2S(=O)(=O)NC(=O)Nc2ccccc2C)cc1 [Example 36],16 nM
16,CCCCc1nc(Cl)c(C=O)n1Cc1ccc(-c2ccccc2S(=O)(=O)NC(=O)NCCc2ccccc2)cc1 [Example 37],1.1 nM
17,"C=CCNC(=O)NS(=O)(=O)c1ccccc1-c1ccc(Cn2c(CCCC)nc(Cl)c2C=O)cc1 [Example 55, 1-[(2'-allylaminocarbonylaminosulfonylbiphenyl-4-yl)methyl]-2-n-butyl-4-chloroimidazole-5-carboxaldehyde]",8.8 nM
18,"C=CCNC(=O)NS(=O)(=O)c1ccccc1-c1ccc(Cn2c(CCCC)nc(SC)c2C(=O)O)cc1 [Example 56, 1-[(2'-allylaminocarbonylaminosulfonylbiphenyl-4-yl)methyl]-2-n-butyl-4-methylthioimidazole-5-carboxylic acid]",4.6 nM
19,C=CCNC(=O)NS(=O)(=O)c1ccccc1-c1ccc(Cn2c(CCCC)nc(SC)c2C(=O)OCC)cc1 [Example 58],3 nM
20,CCCCc1nc(SC)c(C(=O)O)n1Cc1ccc(-c2ccccc2S(=O)(=O)NC(=O)NC2CCCCC2)cc1 [Example 59],1.3 nM

row,Compound,IC50
1,CCCCc1nc(SC)c(C(=O)O)n1Cc1ccc(-c2ccccc2S(=O)(=O)NC(=O)NCC2CCCCC2)cc1 [Example 60],2.2 nM
2,C=CCN(CC=C)C(=O)NS(=O)(=O)c1ccccc1-c1ccc(Cn2c(CCCC)nc(SC)c2C(=O)O)cc1 [Example 61],1.1 nM
3,CCCCc1nc(SC)c(C(=O)O)n1Cc1ccc(-c2ccccc2S(=O)(=O)NC(=O)NCCC2=CCCCC2)cc1 [Example 62],3.6 nM
4,C#CCNC(=O)NS(=O)(=O)c1ccccc1-c1ccc(Cn2c(CCCC)nc(SC)c2C(=O)O)cc1 [Example 64],0.5 nM
5,CCCCc1nc(SC)c(C(=O)OCC)n1Cc1ccc(-c2ccccc2S(=O)(=O)NC(=O)NCCc2ccccn2)cc1 [Example 65],1.8 nM
6,CCCCc1nc(SC)c(C(=O)OCC)n1Cc1ccc(-c2ccccc2S(=O)(=O)NC(=O)NCCc2ccccc2)cc1 [Example 66],6.9 nM
7,CCCCc1nc(SC)c(C(=O)O)n1Cc1ccc(-c2ccccc2S(=O)(=O)NC(=O)NCCc2ccccc2)cc1 [Example 67],0.91 nM
8,CCCCc1nc(SC)c(C(=O)OCC)n1Cc1ccc(-c2ccccc2S(=O)(=O)NC(=O)N[C@H](C(=O)OC)C(C)CC)cc1 (stereo partly shown) [Example 68],12 nM
9,CCCCc1nc(SC)c(C(=O)OCC)n1Cc1ccc(-c2ccccc2S(=O)(=O)NC(=O)N[C@H](C(=O)OC)C(C)C)cc1 [Example 69],3.2 nM
10,CCCCc1nc(SC)c(C(=O)OCC)n1Cc1ccc(-c2ccccc2S(=O)(=O)NC(=O)NCC(=O)OC)cc1 [Example 71],2.2 nM
11,CCCCc1nc(SC)c(C(=O)OCC)n1Cc1ccc(-c2ccccc2S(=O)(=O)NC(=O)NCc2ccccc2)cc1 [Example 73],2.5 nM
12,CCCCc1nc(SC)c(C(=O)OCC)n1Cc1ccc(-c2ccccc2S(=O)(=O)NC(=O)NCCCc2ccccc2)cc1 [Example 76],9.5 nM
13,CCCCc1nc(SC)c(C(=O)O)n1Cc1ccc(-c2ccccc2S(=O)(=O)NC(=O)NCCc2cccc(C(F)(F)F)c2)cc1 [Example 79],5.8 nM
14,CCCCc1nc(SC)c(C(=O)O)n1Cc1ccc(-c2ccccc2S(=O)(=O)NC(=O)NCc2ccccc2)cc1 [Example 80],0.69 nM
15,CCCCc1nc(SC)c(C(=O)O)n1Cc1ccc(-c2ccccc2S(=O)(=O)NC(=O)NCCCc2ccccc2)cc1 [Example 81],0.79 nM
16,CCCCc1nc(SC)c(C(=O)O)n1Cc1ccc(-c2ccccc2S(=O)(=O)NC(=O)NCc2ccccc2OC)cc1 [Example 83],0.96 nM
17,CCCCc1nc(SC)c(C(=O)OCC)n1Cc1ccc(-c2ccccc2S(=O)(=O)NC(=O)NCc2ccccc2OC)cc1 [Example 84],4.3 nM
18,CCCCc1nc(SC)c(C(=O)OCC)n1Cc1ccc(-c2ccccc2S(=O)(=O)NC(=O)NCc2cccc(OC)c2)cc1 [Example 85],3.9 nM
19,CCCCc1nc(SC)c(C(=O)O)n1Cc1ccc(-c2ccccc2S(=O)(=O)NC(=O)NCc2ccc(OC)c(OC)c2)cc1 [Example 89],1.1 nM
20,CCCCc1nc(SC)c(C(=O)O)n1Cc1ccc(-c2ccccc2S(=O)(=O)NC(=O)NCc2ccc(OC)cc2)cc1 [Example 90],0.69 nM

# Continued, values first:
row,IC50,Compound
1,280 nM,CCCCc1nc(SC)c(C(=O)OCC)n1Cc1ccc(-c2ccccc2S(=O)(=O)NC(=O)NCc2ccc(OC)c(OC)c2)cc1 [Example 92]
2,1.8 nM,CCCCc1nc(SC)c(C(=O)OCC)n1Cc1ccc(-c2ccccc2S(=O)(=O)NC(=O)NC(C)c2ccccc2)cc1 (stereo not shown) [Example 95]
3,1.4 nM,CCCCc1nc(SC)c(C(=O)O)n1Cc1ccc(-c2ccccc2S(=O)(=O)NC(=O)N[C@@H](Cc2ccccc2)C(=O)O)cc1 [Example 98]
4,26.6 nM,CCCCc1nc(SC)c(C(=O)OCC)n1Cc1ccc(-c2ccccc2S(=O)(=O)NC(=O)Nc2ccccc2)cc1 [Example 99]
5,68.5 nM,CCCCc1nc(SC)c(C(=O)OCC)n1Cc1ccc(-c2ccccc2S(=O)(=O)NC(=O)Nc2ccc(F)cc2)cc1 [Example 100]
6,2.4 nM,CCCCc1nc(SC)c(C(=O)O)n1Cc1ccc(-c2ccccc2S(=O)(=O)NC(=O)Nc2ccc(F)cc2)cc1 [Example 101]
7,2.3 nM,CCCCc1nc(SC)c(C(=O)O)n1Cc1ccc(-c2ccccc2S(=O)(=O)NC(=O)Nc2ccccc2)cc1 [Example 102]
8,3 nM,CCCCc1nc(SC)c(C(=O)OCC)n1Cc1ccc(-c2ccccc2S(=O)(=O)NC(=O)NCCC)cc1 [Example 105]
9,2.5 nM,CCCCc1nc(SC)c(C(=O)O)n1Cc1ccc(-c2ccccc2S(=O)(=O)NC(=O)NCCN2CCOCC2)cc1 [Example 107]
10,0.95 nM,CCCCc1nc(SC)c(C(=O)O)n1Cc1ccc(-c2ccccc2S(=O)(=O)NC(=O)NCCC2CCCN2C)cc1 (stereo not shown) [Example 108]
11,0.6 nM,CCCCc1nc(SC)c(C(=O)O)n1Cc1ccc(-c2ccccc2S(=O)(=O)NC(=O)NCC2CC2)cc1 [Example 109]
12,0.5 nM,CCCCc1nc(SC)c(C(=O)OCC)n1Cc1ccc(-c2ccccc2S(=O)(=O)NC(=O)NCC2CC2)cc1 [Example 110]
13,2.9 nM,CCCCc1nc(SC)c(C(=O)O)n1Cc1ccc(-c2ccccc2S(=O)(=O)NC(=O)NCCCN2CCCCC2C)cc1 (stereo not shown) [Example 111]
14,1.5 nM,CCCCc1nc(SC)c(C(=O)O)n1Cc1ccc(-c2ccccc2S(=O)(=O)NC(=O)NCc2cccnc2)cc1 [Example 112]
15,0.3 nM,CCCCc1nc(SC)c(C(=O)O)n1Cc1ccc(-c2ccccc2S(=O)(=O)NC(=O)NCc2ccccn2)cc1 [Example 113]
16,0.9 nM,CCCCc1nc(SC)c(C(=O)O)n1Cc1ccc(-c2ccccc2S(=O)(=O)NC(=O)NCc2ccncc2)cc1 [Example 115]
17,2.4 nM,CCCCc1nc(SC)c(C(=O)O)n1Cc1ccc(-c2ccccc2S(=O)(=O)NC(=O)NCCCN2CCCC2=O)cc1 [Example 116]
18,1.2 nM,CCCCc1nc(SC)c(C(=O)OCC)n1Cc1ccc(-c2ccccc2S(=O)(=O)NC(=O)NCC2CCNCC2)cc1 [Example 117]
